Reference: ChEMBL document CHEMBL3286274, “Investigation of a novel series of 2-hydroxyisoquinoline-1,3(2H,4H)-diones as human immunodeficiency virus type 1 integrase inhibitors” (J Med Chem, 2014)
The source made the active and inactive calls. The calls are words filed in the database; no cut-off is given here.

What was measured:
[1] = target: Human immunodeficiency virus type 1 reverse transcriptase (Human immunodeficiency virus 1) (UniProt Q72547); assay: Inhibition of recombinant HIV-1 reverse transcriptase-associated RNase H activity using [3H]-labeled RNA as substrate at 10 uM after 10 mins relative to control
[2] = Cytotoxicity against human MT4 cells infected with HIV-1 3B assessed as reduction in cell viability by MTT assay; assay type: cell-based
[3] = tested on: Human immunodeficiency virus 1; assay: Antiviral activity against HIV-1 3B infected in human MT4 cells assessed as protection against virus-induced cytopathic effect by MTT assay; assay type: functional, organism-based; conditions: Human immunodeficiency virus 1, 3B
[4] = target: Human immunodeficiency virus type 1 integrase (Human immunodeficiency virus 1, UniProt Q7ZJM1); assay: Inhibition of HIV-1 overall integrase activity using 5'-digoxigenin-labeled GACCCTTTTAGTCAGTGTGGAAAATCTCTAGCAGT-3' as substrate after 1 hr by ELISA
in vitro = conditions: human, MT4 cells infected with HIV-1 3B
Description: Therapeutic index, ratio of CC50 for human MT4 cells infected with HIV-1 3B to EC50 for HIV-1 3B infected in human MT4 cells

[5] = tested on: Human immunodeficiency virus 1; assay: Resistance ratio of EC50 for raltegravir-resistant HIV1 harboring integrase E92Q mutant to EC50 for wild type HIV1; assay type: functional
[6] = tested on: Human immunodeficiency virus 1; assay: Antiviral activity against HIV-1 3B infected in human MT4 cells assessed as inhibition of p24 antigen production at 50 to 100 times EC50 treated for 1 to 25 hrs measured at 30 hrs by ELISA; assay type: functional, organism-based
[7] = tested on: Human immunodeficiency virus 1; assay: Resistance ratio of EC50 for raltegravir-resistant HIV1 harboring integrase Q148H mutant to EC50 for wild type HIV1; assay type: functional
[8] = tested on: Human immunodeficiency virus 1; assay: Resistance ratio of EC50 for raltegravir-resistant HIV1 harboring integrase G140S/Q148H double mutant to EC50 for wild type HIV1; assay type: functional
[9] = tested on: Human immunodeficiency virus 1; assay: Resistance ratio of EC50 for raltegravir-resistant HIV1 harboring integrase N155H mutant to EC50 for wild type HIV1; assay type: functional
[10] = n-octanol-PBS partition coefficient, log D of the compound at pH 7.4; assay type: physicochemical
[11] = target: Human immunodeficiency virus type 1 reverse transcriptase (Human immunodeficiency virus 1, UniProt Q72547); assay: Inhibition of recombinant HIV-1 reverse transcriptase-associated RNase H activity using [3H]-labeled RNA as substrate after 10 mins
[12] = tested on: Human immunodeficiency virus 1; assay: Antiviral activity against HIV-1 3B infected in human MT4 cells assessed as inhibition of p24 antigen production by measuring time delay in loss of compound activity at 50 to 100 times EC50 by ELISA; assay type: functional

inhibition [1]	IC50 [4]	Compound	CC50 [2]	EC50 [3]	selectivity ratio (in vitro)	other results
69.1%	0.01 µM	O=C(NCc1ccccc1)c1c(O)n(O)c(=O)c2cc([N+](=O)[O-])ccc12	118 µM	0.21 µM	564	
25.5%	0.02 µM	O=C(NCc1ccc(F)cc1)C1C(=O)N(O)C(=O)c2cc(C(F)(F)F)ccc21 (stereo not drawn)	> 56 µM	0.6 µM	> 94	
25.2%	0.1 µM	CC(=O)Nc1ccc2c(c1)C(=O)N(O)C(=O)C2C(=O)NCc1ccc(F)cc1 (stereo not drawn)	149 µM	29.3 µM	5	
21.9%	0.24 µM	O=C(NCc1ccc(F)cc1)C1C(=O)N(O)C(=O)c2cc(F)ccc21 (stereo not drawn)	116 µM	0.73 µM	162	
		O=C(NCc1ccc(F)cc1)c1c(O)n(O)c(=O)c2ccccc12				Ratio EC50 [5]: 1; inhibition [6]: Active; Ratio EC50 [7]: 1; Ratio EC50 [8]: 1; Ratio EC50 [9]: 1; logD [10]: 0.56
41.2%	0.08 µM	O=C(Nc1ccc2c(c1)C(=O)N(O)C(=O)C2C(=O)NCc1ccc(F)cc1)c1ccccc1 (stereo not drawn)	21 µM	> 21 µM		
78.7%	0.01 µM	O=C(NCc1ccc(F)cc1)c1c(O)n(O)c(=O)c2cc([N+](=O)[O-])ccc12				IC50 [11]: 4.8 µM
31.6%	0.88 µM	O=C(NCc1ccc(F)cc1)C1C(=O)N(O)C(=O)c2c(F)cccc21 (stereo not drawn)	149 µM	4.46 µM	33	
	0.16 µM	O=C(Nc1ccc2c(c1)C(=O)N(O)C(=O)C2C(=O)NCc1ccc(F)cc1)c1ccccn1 (stereo not drawn)	1 µM	> 1.2 µM		
67.2%	0.01 µM	COc1ccc(CNC(=O)c2c(O)n(O)c(=O)c3cc([N+](=O)[O-])ccc23)cc1	> 250 µM	2.97 µM	> 84	
		CC(C)c1nc(CN(C)C(=O)N[C@H](C(=O)N[C@@H](Cc2ccccc2)C[C@H](O)[C@H](Cc2ccccc2)NC(=O)OCc2cncs2)C(C)C)cs1 [RITONAVIR]				Time [12]: 25 h
		Cc1cn([C@H]2C[C@H](N=[N+]=[N-])[C@@H](CO)O2)c(=O)[nH]c1=O [ZIDOVUDINE]				Time [12]: 4 h
26.3%	0.14 µM	O=C(NCc1ccc(F)cc1)C1C(=O)N(O)C(=O)c2cc(Cl)ccc21 (stereo not drawn)	106 µM	4.19 µM		
49%	0.06 µM	CCCCCCNC(=O)c1c(O)n(O)c(=O)c2cc([N+](=O)[O-])ccc12	> 250 µM	4.21 µM	> 59	
29.4%	0.11 µM	Nc1ccc2c(c1)C(=O)N(O)C(=O)C2C(=O)NCc1ccc(F)cc1 (stereo not drawn)	253 µM	23.3 µM	10	
28.9%	0.06 µM	O=C(Cc1cccs1)Nc1ccc2c(c1)C(=O)N(O)C(=O)C2C(=O)NCc1ccc(F)cc1 (stereo not drawn)	41 µM	> 41 µM		
60%	0.01 µM	O=C(Nc1ccccc1)c1c(O)n(O)c(=O)c2cc([N+](=O)[O-])ccc12	115 µM	0.17 µM	679	
	0.06 µM	O=C(NCCc1ccc(F)cc1)c1c(O)n(O)c(=O)c2cc([N+](=O)[O-])ccc12	> 250 µM	0.95 µM	> 262	
46.4%	0.23 µM	O=C(Cc1ccccc1)Nc1ccc2c(c1)C(=O)N(O)C(=O)C2C(=O)NCc1ccc(F)cc1 (stereo not drawn)	31 µM	> 31 µM		
		Cc1nnc(C(=O)NC(C)(C)c2nc(C(=O)NCc3ccc(F)cc3)c(O)c(=O)n2C)o1	> 8 µM			
15.5%	0.26 µM	COc1ccc2c(c1)C(=O)N(O)C(=O)C2C(=O)NCc1ccc(F)cc1 (stereo not drawn)	21 µM	6.5 µM	3	
24.5%	0.24 µM	O=C(NCc1ccc(F)cc1)C1C(=O)N(O)C(=O)c2ccc(F)cc21 (stereo not drawn)	123 µM	3.16 µM	39	
	0.03 µM	O=C(Nc1ccc(F)cc1)c1c(O)n(O)c(=O)c2cc([N+](=O)[O-])ccc12	186 µM	0.19 µM	981	
38.7%	0.06 µM	O=C(NCc1ccc(F)cc1)C1C(=O)N(O)C(=O)c2cc(Br)ccc21 (stereo not drawn)	99.5 µM	2.99 µM	33	
48.2%	0.03 µM	O=C(NCc1ccc(F)cc1)c1c(O)n(O)c(=O)c2ccc([N+](=O)[O-])cc12	> 125 µM	0.27 µM	> 463	
	0.07 µM	N#Cc1ccc2c(C(=O)NCc3ccc(F)cc3)c(O)n(O)c(=O)c2c1	> 125 µM	0.67 µM	> 187	
